Measured values from patent US20260356830A1, “COMPOUNDS FOR MODULATING RET PROTEIN” (Bristol-Myers Squibb Company, priority 2022, published 2026).

Molecular target: T1, CCDC6-RET (Homo sapiens, UniProt P07949+Q16204+Q96SW2)
T1 construct: CCDC6 (natural N-terminal fusion partner, UniProt Q16204); endogenous in cells; host or cells: TPC-1 (parental, papillary thyroid carcinoma)
Assay: Cellular RET degradation, AlphaLISA, TPC-1 cell line
Format: cell-based
Settings: for Dmax: TPC1, human, 24 h, read-out: Cell Density TPC-1/CCDC6-RET Ymax %; for DC50: read-out: Cell Density TPC-1/CCDC6-RET DC50, half-maximal degradation concentration, TPC-1 (CCDC6-RET), 24 hrs
Outline: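 TPC-1 papillary thyroid carcinoma cells (endogenous CCDC6-RET) in DMEM with 2% FBS, compound-treated 24 h at 37 °C. RET in lysates quantified by AlphaLISA luminescence, normalized to media-only and DMSO wells; DC50 and maximal degradation from 4-parameter logistic fit.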

T1 sequence (Q16204+P07949 fused): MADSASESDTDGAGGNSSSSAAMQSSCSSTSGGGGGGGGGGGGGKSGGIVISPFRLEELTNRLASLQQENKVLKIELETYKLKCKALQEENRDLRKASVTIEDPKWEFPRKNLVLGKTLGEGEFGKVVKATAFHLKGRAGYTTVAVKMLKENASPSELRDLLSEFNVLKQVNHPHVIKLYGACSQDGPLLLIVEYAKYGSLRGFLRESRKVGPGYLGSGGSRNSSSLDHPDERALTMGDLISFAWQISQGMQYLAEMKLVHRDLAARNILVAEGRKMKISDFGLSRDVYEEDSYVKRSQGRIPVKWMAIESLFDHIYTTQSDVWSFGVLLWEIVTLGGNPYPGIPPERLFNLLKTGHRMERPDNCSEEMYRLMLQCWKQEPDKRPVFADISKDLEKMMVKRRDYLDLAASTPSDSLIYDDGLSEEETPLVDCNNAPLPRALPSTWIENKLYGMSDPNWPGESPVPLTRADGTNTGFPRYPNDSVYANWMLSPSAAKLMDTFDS
T1 sequence (Q96SW2 whole entry, the tested form may be a part): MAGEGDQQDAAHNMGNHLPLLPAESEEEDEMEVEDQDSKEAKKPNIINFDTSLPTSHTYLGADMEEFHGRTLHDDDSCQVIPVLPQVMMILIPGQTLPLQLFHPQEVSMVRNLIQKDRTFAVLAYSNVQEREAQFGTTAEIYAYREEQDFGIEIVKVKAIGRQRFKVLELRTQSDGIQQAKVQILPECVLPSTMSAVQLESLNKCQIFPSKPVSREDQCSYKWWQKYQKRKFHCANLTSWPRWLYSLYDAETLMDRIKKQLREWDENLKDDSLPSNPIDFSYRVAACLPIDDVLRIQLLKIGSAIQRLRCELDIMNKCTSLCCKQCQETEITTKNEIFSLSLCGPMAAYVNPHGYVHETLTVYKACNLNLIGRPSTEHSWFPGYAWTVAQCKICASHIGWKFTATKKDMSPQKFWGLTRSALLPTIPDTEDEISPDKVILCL
T1 sequence (Q16531 whole entry partner, the tested form may be a part): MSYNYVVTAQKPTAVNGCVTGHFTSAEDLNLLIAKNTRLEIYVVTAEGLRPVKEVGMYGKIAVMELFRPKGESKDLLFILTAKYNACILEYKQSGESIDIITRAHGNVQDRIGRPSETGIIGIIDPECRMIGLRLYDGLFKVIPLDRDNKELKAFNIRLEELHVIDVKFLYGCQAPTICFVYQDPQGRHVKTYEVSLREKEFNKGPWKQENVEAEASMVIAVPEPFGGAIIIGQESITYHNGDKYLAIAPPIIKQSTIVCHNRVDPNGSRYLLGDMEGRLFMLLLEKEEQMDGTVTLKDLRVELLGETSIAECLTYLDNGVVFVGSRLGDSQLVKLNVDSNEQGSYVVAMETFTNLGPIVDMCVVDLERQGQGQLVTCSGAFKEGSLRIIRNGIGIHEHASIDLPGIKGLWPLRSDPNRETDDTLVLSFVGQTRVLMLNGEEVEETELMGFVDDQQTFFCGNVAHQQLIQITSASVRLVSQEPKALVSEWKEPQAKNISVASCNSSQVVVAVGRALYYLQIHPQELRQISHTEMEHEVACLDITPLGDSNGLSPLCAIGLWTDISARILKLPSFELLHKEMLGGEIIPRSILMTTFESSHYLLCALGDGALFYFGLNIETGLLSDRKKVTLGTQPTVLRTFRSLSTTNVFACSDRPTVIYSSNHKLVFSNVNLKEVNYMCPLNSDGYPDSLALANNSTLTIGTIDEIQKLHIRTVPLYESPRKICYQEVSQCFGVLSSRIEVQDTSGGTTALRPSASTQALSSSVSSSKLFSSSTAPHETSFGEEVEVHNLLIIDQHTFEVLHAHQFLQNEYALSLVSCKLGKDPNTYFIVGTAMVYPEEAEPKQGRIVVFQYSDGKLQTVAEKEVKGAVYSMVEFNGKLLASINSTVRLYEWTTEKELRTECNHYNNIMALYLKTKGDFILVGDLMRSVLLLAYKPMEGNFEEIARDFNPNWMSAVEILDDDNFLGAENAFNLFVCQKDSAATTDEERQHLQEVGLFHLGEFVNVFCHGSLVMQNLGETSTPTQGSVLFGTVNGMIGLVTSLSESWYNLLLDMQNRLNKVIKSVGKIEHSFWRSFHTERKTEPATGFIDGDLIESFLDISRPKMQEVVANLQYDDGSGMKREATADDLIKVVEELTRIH

SMILES | Dmax [%] | DC50 [nM]
CCOc1cc(-c2ccc(N3CCC(CN(C)C(=O)CCCCCCN4CCC(c5ccc6c(c5)C(=O)N(C5CCC(=O)NC5=O)C6)CC4)(NC(=O)c4cc(F)ccc4F)CC3)nc2)c2c(C#N)cnn2c1 (centres unmarked) [Example 146, N-[1-(5-{3-cyano-6-ethoxypyrazolo[1,5-a]pyridin-4-yl}pyridin-2-yl)-4-[(7-{4-[2-(2,6-dioxopiperidin-3-yl)-3-oxo-2,3-dihydro-1H-isoindol-5-yl]piperidin-1-yl}-N-methylheptanamido)methyl]piperidin-4-yl]-2,5-difluorobenzamide] | > 90 | 10 to 100
CCOc1cc(-c2ccc(N3CCC(C)(CN4CCN(C(=O)CCN5CCC(c6ccc7c(c6)C(=O)N(C6CCC(=O)NC6=O)C7)CC5)CC4)CC3)nc2)c2c(C#N)cnn2c1 (centres unmarked) [Example 147, 4-[6-(4-{[4-(3-{4-[2-(2,6-dioxopiperidin-3-yl)-3-oxo-2,3-dihydro-1H-isoindol-5-yl]piperidin-1-yl}propanoyl)piperazin-1-yl]methyl}-4-methylpiperidin-1-yl)pyridin-3-yl]-6-ethoxypyrazolo[1,5-a]pyridine-3-carbonitrile] | 60 to 90 | 10 to 100
CCOc1cc(-c2ccc(N3CCC(NC(=O)c4cc(F)ccc4F)(C(=O)NCCCCCCNc4ccc(N5CCC(=O)NC5=O)cc4)CC3)nc2)c2c(C#N)cnn2c1 [Example 148, 1-(5-{3-cyano-6-ethoxypyrazolo[1,5-a]pyridin-4-yl}pyridin-2-yl)-4-(2,5-difluorobenzamido)-N-(6-{[4-(2,4-dioxo-1,3-diazinan-1-yl)phenyl]amino}hexyl)piperidine-4-carboxamide] | 60 to 90 | 2 to 10
CCOc1cc(-c2ccc(N3CCC(NC(=O)c4cc(F)ccc4F)(C(=O)NCCCCCCNc4cccc5c(N6CCC(=O)NC6=O)nn(C)c45)CC3)nc2)c2c(C#N)cnn2c1 [Example 149, 1-(5-{3-cyano-6-ethoxypyrazolo[1,5-a]pyridin-4-yl}pyridin-2-yl)-4-(2,5-difluorobenzamido)-N-(6-{[3-(2,4-dioxo-1,3-diazinan-1-yl)-1-methyl-1H-indazol-7-yl]amino}hexyl)piperidine-4-carboxamide] | > 90 | < 2
CCOc1cc(-c2ccc(N3CCC(NC(=O)c4cc(F)ccc4F)(C(=O)NCCCCCCCCCCNc4cccc5c(N6CCC(=O)NC6=O)nn(C)c45)CC3)nc2)c2c(C#N)cnn2c1 [Example 150, 1-(5-{3-cyano-6-ethoxypyrazolo[1,5-a]pyridin-4-yl}pyridin-2-yl)-4-(2,5-difluorobenzamido)-N-(10-{[3-(2,4-dioxo-1,3-diazinan-1-yl)-1-methyl-1H-indazol-7-yl]amino}decyl)piperidine-4-carboxamide] | > 90 | 10 to 100
CCOc1cc(-c2ccc(N3CCC(NC(=O)c4cc(F)ccc4F)(C(=O)NCCCCCCCCNc4ccc5c(N6CCC(=O)NC6=O)nn(C)c5c4)CC3)nc2)c2c(C#N)cnn2c1 [Example 152, 1-(5-{3-cyano-6-ethoxypyrazolo[1,5-a]pyridin-4-yl}pyridin-2-yl)-4-(2,5-difluorobenzamido)-N-(8-{[3-(2,4-dioxo-1,3-diazinan-1-yl)-1-methyl-1H-indazol-6-yl]amino}octyl)piperidine-4-carboxamide] | 60 to 90 | 2 to 10
CCOc1cc(-c2ccc(N3CCC(NC(=O)c4cc(F)ccc4F)(C(=O)NCCCCCCCCCCNc4ccc5c(N6CCC(=O)NC6=O)nn(C)c5c4)CC3)nc2)c2c(C#N)cnn2c1 [Example 153, 1-(5-{3-cyano-6-ethoxypyrazolo[1,5-a]pyridin-4-yl}pyridin-2-yl)-4-(2,5-difluorobenzamido)-N-(10-{[3-(2,4-dioxo-1,3-diazinan-1-yl)-1-methyl-1H-indazol-6-yl]amino}decyl)piperidine-4-carboxamide] | > 90 | 2 to 10

Next, values leading:

Dmax [%] | DC50 [nM] | SMILES
60 to 90 | 10 to 100 | CCOc1cc(-c2ccc(N3CCC(NC(=O)c4cc(F)ccc4F)(C(=O)NCCCCN4CCN(c5ccc6c(c5)CN(C5CCC(=O)NC5=O)C6=O)CC4)CC3)nc2)c2c(C#N)cnn2c1 (centres unmarked) [Example 154, 1-(5-{3-cyano-6-ethoxypyrazolo[1,5-a]pyridin-4-yl}pyridin-2-yl)-4-(2,5-difluorobenzamido)-N-(4-{4-[2-(2,6-dioxopiperidin-3-yl)-1-oxo-2,3-dihydro-1H-isoindol-5-yl]piperazin-1-yl}butyl)piperidine-4-carboxamide]
60 to 90 | < 2 | CCOc1cc(-c2ccc(N3CCC(NC(=O)c4cc(F)ccc4F)(C(=O)NCCCCCCN4CCN(c5ccc6c(c5)CN(C5CCC(=O)NC5=O)C6=O)CC4)CC3)nc2)c2c(C#N)cnn2c1 (centres unmarked) [Example 155, 1-(5-{3-cyano-6-ethoxypyrazolo[1,5-a]pyridin-4-yl}pyridin-2-yl)-4-(2,5-difluorobenzamido)-N-(6-{4-[2-(2,6-dioxopiperidin-3-yl)-1-oxo-2,3-dihydro-1H-isoindol-5-yl]piperazin-1-yl}hexyl)piperidine-4-carboxamide]
60 to 90 | 2 to 10 | CCOc1cc(-c2ccc(N3CCC(NC(=O)c4cc(F)ccc4F)(C(=O)NCCN4CCC(c5ccc6c(c5)CN(C5CCC(=O)NC5=O)C6=O)CC4)CC3)nc2)c2c(C#N)cnn2c1 (centres unmarked) [Example 156, 1-(5-{3-cyano-6-ethoxypyrazolo[1,5-a]pyridin-4-yl}pyridin-2-yl)-4-(2,5-difluorobenzamido)-N-(2-{4-[2-(2,6-dioxopiperidin-3-yl)-1-oxo-2,3-dihydro-1H-isoindol-5-yl]piperidin-1-yl}ethyl)piperidine-4-carboxamide]
> 90 | 2 to 10 | CCOc1cc(-c2ccc(N3CCC(NC(=O)c4cc(F)ccc4F)(C(=O)NCCCCCCN4CCC(c5ccc6c(c5)CN(C5CCC(=O)NC5=O)C6=O)CC4)CC3)nc2)c2c(C#N)cnn2c1 (centres unmarked) [Example 157, 1-(5-{3-cyano-6-ethoxypyrazolo[1,5-a]pyridin-4-yl}pyridin-2-yl)-4-(2,5-difluorobenzamido)-N-(6-{4-[2-(2,6-dioxopiperidin-3-yl)-1-oxo-2,3-dihydro-1H-isoindol-5-yl]piperidin-1-yl}hexyl)piperidine-4-carboxamide]
60 to 90 | < 2 | CCOc1cc(-c2ccc(N3CCC(NC(=O)c4cc(F)ccc4F)(C(=O)NCCN4CCN(c5ccc6c(c5)C(=O)N(C5CCC(=O)NC5=O)C6)CC4)CC3)nc2)c2c(C#N)cnn2c1 (centres unmarked) [Example 158, 1-(5-{3-cyano-6-ethoxypyrazolo[1,5-a]pyridin-4-yl}pyridin-2-yl)-4-(2,5-difluorobenzamido)-N-(2-{4-[2-(2,6-dioxopiperidin-3-yl)-3-oxo-2,3-dihydro-1H-isoindol-5-yl]piperazin-1-yl}ethyl)piperidine-4-carboxamide]
60 to 90 | 2 to 10 | CCOc1cc(-c2ccc(N3CCC(NC(=O)c4cc(F)ccc4F)(C(=O)NCCCCN4CCN(c5ccc6c(c5)C(=O)N(C5CCC(=O)NC5=O)C6)CC4)CC3)nc2)c2c(C#N)cnn2c1 (centres unmarked) [Example 159, 1-(5-{3-cyano-6-ethoxypyrazolo[1,5-a]pyridin-4-yl}pyridin-2-yl)-4-(2,5-difluorobenzamido)-N-(4-{4-[2-(2,6-dioxopiperidin-3-yl)-3-oxo-2,3-dihydro-1H-isoindol-5-yl]piperazin-1-yl}butyl)piperidine-4-carboxamide]
